Experimental data taken from patent US8119563B2, “N-substituted azacycles” (FMC Corporation, priority 2003, dated 2012).

Test system: tobacco budworm (Heliothis virescens [Fabricius])
Experiment: surface-treated diet test, insecticidal activity against tobacco budworm
Format: in vivo
Details: 0.25 millimoles of candidate insecticide on the surface of the diet, second instar larvae, five-day exposure; for Percent Mortality: compared to total number of insects infested; for Percent Growth Inhibition: inhibition of insect weight relative to untreated controls
In short: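 Wheat germ artificial diet surface-treated with compound from 50 mM DMSO stock diluted 1:7 in 1:1 water/acetone (0.25 millimolar on diet), or lower-rate dilutions; DMSO-only controls. One second-instar larva per well, 25° C, 60% RH, 14 h light, five days; percent weight inhibition versus untreated and percent mortality scored.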

SMILES | Percent Mortality | Percent Growth Inhibition
CCCCC(CC)C(=O)[O-].OC1(C(c2ccc(OC(F)(F)F)cc2)c2ccc(OC(F)(F)F)cc2)CC[N+](O)(Cc2ccc(Oc3ccccn3)cc2)CC1 (stereo not shown) [Compound 499] | 100% | 100%
O=S(=O)([O-])CCCO.OC1(C(c2ccc(OC(F)(F)F)cc2)c2ccc(OC(F)(F)F)cc2)CC[N+](O)(Cc2ccc(Oc3ccccn3)cc2)CC1 (stereo not shown) [Compound 500] | 100% | 100%
CON=C(Cl)c1ccc(C[N+]2(O)CCC(O)(C(c3ccc(OC(F)(F)F)cc3)c3ccc(OC(F)(F)F)cc3)CC2)cc1.O=C(O)CC(O)(CC(=O)O)C(=O)[O-] (stereo not shown) [Compound 501] | 100% | 100%
O=C([O-])C1CCCCC1.OC1(C(c2ccc(OC(F)(F)F)cc2)c2ccc(OC(F)(F)F)cc2)CC[N+](O)(Cc2ccc(Oc3ccccn3)cc2)CC1 (stereo not shown) [Compound 502] | 100% | 100%
CCOC(C)C(=O)[O-].OC1(C(c2ccc(OC(F)(F)F)cc2)c2ccc(OC(F)(F)F)cc2)CC[N+](O)(Cc2ccc(Oc3ccccn3)cc2)CC1 (stereo not shown) [Compound 503] | 100% | 100%
O=C(O)CC(O)(CC(=O)O)C(=O)[O-].OC1(C(c2ccc(OC(F)(F)F)cc2)c2ccc(OC(F)(F)F)cc2)CC[N+](O)(Cc2ccc(Oc3ccccn3)cc2)CC1 (stereo not shown) [Compound 504] | 100% | 100%
CC1(C)[C@@H]2CCC1(CS(=O)(=O)[O-])C(=O)C2.OC1(C(c2ccc(OC(F)(F)F)cc2)c2ccc(OC(F)(F)F)cc2)CC[N+](O)(Cc2ccc(Oc3ccccn3)cc2)CC1 (stereo not shown) [Compound 505] | 100% | 100%
CCS(=O)(=O)[O-].OC1(C(c2ccc(OC(F)(F)F)cc2)c2ccc(OC(F)(F)F)cc2)CC[N+](O)(Cc2ccc(Oc3ccccn3)cc2)CC1 (stereo not shown) [Compound 506] | 100% | 100%
CC1(C)[C@@H]2CCC1(CS(=O)(=O)[O-])C(=O)C2.CCON=Cc1ccc(C[N+]2(O)CCC(O)(C(c3ccc(OC(F)(F)F)cc3)c3ccc(OC(F)(F)F)cc3)CC2)cc1 (stereo not shown) [Compound 507] | 100% | 100%
O=S(=O)([O-])C(F)(F)C(F)(F)C(F)(F)C(F)(F)F.OC1(C(c2ccc(OC(F)(F)F)cc2)c2ccc(OC(F)(F)F)cc2)CC[N+](O)(Cc2ccc(Oc3ccccn3)cc2)CC1 (stereo not shown) [Compound 508] | 100% | 100%
CC(C)=CCCC(C)CC(=O)[O-].OC1(C(c2ccc(OC(F)(F)F)cc2)c2ccc(OC(F)(F)F)cc2)CC[N+](O)(Cc2ccc(Oc3ccccn3)cc2)CC1 (stereo not shown) [Compound 509] | 100% | 100%
O=C([O-])CO.OC1(C(c2ccc(OC(F)(F)F)cc2)c2ccc(OC(F)(F)F)cc2)CC[N+](O)(Cc2ccc(Oc3ccccn3)cc2)CC1 (stereo not shown) [Compound 510] | 100% | 100%
O=C([O-])C12CC3CC(CC(C3)C1)C2.OC1(C(c2ccc(OC(F)(F)F)cc2)c2ccc(OC(F)(F)F)cc2)CC[N+](O)(Cc2ccc(Oc3ccccn3)cc2)CC1 (stereo not shown) [Compound 511] | 100% | 100%
O=C([O-])CCCC(=O)O.OC1(C(c2ccc(OC(F)(F)F)cc2)c2ccc(OC(F)(F)F)cc2)CC[N+](O)(Cc2ccc(Oc3ccccn3)cc2)CC1 (stereo not shown) [Compound 512] | 100% | 100%
CCCCCCCC/C=C/CCCCCCCC(=O)[O-].OC1(C(c2ccc(OC(F)(F)F)cc2)c2ccc(OC(F)(F)F)cc2)CC[N+](O)(Cc2ccc(Oc3ccccn3)cc2)CC1 (stereo not shown) [Compound 513] | 100% | 100%
O=C([O-])CCCCCC(=O)O.OC1(C(c2ccc(OC(F)(F)F)cc2)c2ccc(OC(F)(F)F)cc2)CC[N+](O)(Cc2ccc(Oc3ccccn3)cc2)CC1 (stereo not shown) [Compound 514] | 100% | 100%
CCCCCCCCCCCCc1ccc(S(=O)(=O)[O-])cc1.OC1(C(c2ccc(OC(F)(F)F)cc2)c2ccc(OC(F)(F)F)cc2)CC[N+](O)(Cc2ccc(Oc3ccccn3)cc2)CC1 (stereo not shown) [Compound 515] | 100% | 100%
O=C([O-])CCCCC(=O)O.OC1(C(c2ccc(OC(F)(F)F)cc2)c2ccc(OC(F)(F)F)cc2)CC[N+](O)(Cc2ccc(Oc3ccccn3)cc2)CC1 (stereo not shown) [Compound 516] | 100% | 100%
CCCCCCCC(=O)[O-].OC1(C(c2ccc(OC(F)(F)F)cc2)c2ccc(OC(F)(F)F)cc2)CC[N+](O)(Cc2ccc(Oc3ccccn3)cc2)CC1 (stereo not shown) [Compound 517] | 100% | 100%
CCS(=O)(=O)[O-].OC1(C(c2ccc(C(F)(F)F)cc2)c2ccc(C(F)(F)F)cc2)CC[N+](O)(Cc2ccc(Oc3ccc(Cl)nn3)cc2)CC1 (stereo not shown) [Compound 518] | 100% | 100%
O=S(=O)([O-])C(F)(F)C(F)(F)C(F)(F)C(F)(F)C(F)(F)C(F)(F)C(F)(F)C(F)(F)C(F)(F)F.OC1(C(c2ccc(C(F)(F)F)cc2)c2ccc(C(F)(F)F)cc2)CC[N+](O)(Cc2ccc(Oc3ccc(Cl)nn3)cc2)CC1 (stereo not shown) [Compound 520] | 100% | 100%
CC(C)OC(=O)Nc1ccc(C[N+]2(Cc3ccc(NC(=O)OC(C)C)cc3)CCC(O)(C(O)(c3ccc(OC(F)(F)F)cc3)c3ccc(OC(F)(F)F)cc3)CC2)cc1.[Cl-] [Compound 521] | 50% | 100%
Cl.OC1(C(c2ccc(OC(F)(F)F)cc2)c2ccc(OC(F)(F)F)cc2)CCN(Cc2ccc(Oc3ccccn3)cc2)CC1 [Compound 522] | 100% | 100%
